Measurements as given in PubChem BioAssay (NCI).
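1) Cells in 96-well plates. 2) Compound, 48 h, 5 concentrations. 3) Linear interpolation between surrounding doses. 4) Unreached endpoint = highest concentration. The concentration for 50% growth inhibition is given as GI50. TGI is the concentration that stops growth completely.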

Assays:
Assay in all cases: NCI anticancer screen, dose series, 48 h
[1] = test system: SK-MEL-2 melanoma
[2] = test system: OVCAR-4 ovarian
[3] = test system: SR leukemia
[4] = test system: SF-295 CNS
[5] = test system: HCT-15 colon
[6] = test system: PC-3 prostate
[7] = test system: SK-OV-3 ovarian
[8] = test system: CCRF-CEM leukemia
[9] = test system: SN12C renal
[10] = test system: MOLT-4 leukemia
[11] = test system: UACC-257 melanoma
[12] = test system: COLO 205 colon
[13] = test system: DU-145 prostate
[14] = test system: MDA-MB-435
[15] = test system: IGROV1 ovarian
[16] = test system: SK-MEL-28 melanoma
[17] = test system: NCI-H460 lung
[18] = test system: RXF 393 renal
[19] = test system: KM12 colon
[20] = test system: OVCAR-5 ovarian
[21] = test system: EKVX NSCLC
[22] = test system: SNB-75 CNS
[23] = test system: 786-0 renal
[24] = test system: HCC-2998 colon
[25] = test system: SK-MEL-5 melanoma
[26] = test system: SW-620 colon
[27] = test system: TK-10 renal
[28] = test system: ACHN renal
[29] = test system: SF-539 CNS
[30] = test system: MDA-MB-231 breast
[31] = test system: M14 melanoma
[32] = test system: MCF7 breast
[33] = test system: NCI-H23 lung
[34] = test system: HCT-116 colon
[35] = test system: HT29 colon
[36] = test system: HL-60(TB) leukemia
[37] = test system: MALME-3M melanoma
[38] = test system: HS 578T breast
[39] = test system: UACC-62 melanoma
[40] = test system: LOX IMVI melanoma
[41] = test system: A498 renal
[42] = test system: SNB-19 CNS
[43] = test system: UO-31 renal
[44] = test system: SF-268 CNS
[45] = test system: MDA-N
[46] = test system: HOP-62 NSCLC
[47] = test system: U251 CNS
[48] = test system: BT-549 breast
[49] = test system: A549 NSCLC
[50] = test system: HOP-92 NSCLC
[51] = test system: RPMI-8226 leukemia
[52] = test system: OVCAR-3 ovarian
[53] = test system: NCI/ADR-RES ovarian
[54] = test system: CAKI-1 renal
[55] = test system: K-562 leukemia
[56] = test system: OVCAR-8 ovarian
[57] = test system: NCI-H226 lung

## CC[CH2][Pb]([CH2]CC)([CH2]CC)[NH]S(=O)(=O)c1ccc(C)cc1
[1]
  GI50: 17.6 nM
  TGI: 43.6 nM
[2]
  GI50: 68.2 nM
  TGI: 307 nM
[3]
  GI50: 52.2 nM
  TGI: 279 nM
[4]
  GI50: 89.8 nM
  TGI: 203 nM
[5]
  GI50: 125 nM
  TGI: 312 nM
[6]
  GI50: 70.1 nM
  TGI: 196 nM
[7]
  GI50: 78.8 nM
  TGI: 276 nM
[8]
  GI50: 37.1 nM
  TGI: 230 nM
[9]
  GI50: 68.1 nM
  TGI: 172 nM
[10]
  GI50: 74.6 nM
  TGI: 4510 nM
[11]
  GI50: 77.3 nM
  TGI: 245 nM
[12]
  GI50: 23.6 nM
  TGI: 52.8 nM
[13]
  GI50: 85.3 nM
  TGI: 444 nM
[14]
  GI50: 19.4 nM
  TGI: 76.6 nM
[15]
  GI50: 72.3 nM
  TGI: 190 nM
[16]
  GI50: 76.4 nM
  TGI: 241 nM
[17]
  GI50: 137 nM
  TGI: 277 nM
[18]
  GI50: 21.8 nM
  TGI: 86.9 nM
[19]
  GI50: 147 nM
  TGI: 312 nM
[20]
  GI50: 66.7 nM
  TGI: 242 nM
[21]
  GI50: 73.9 nM
  TGI: 317 nM
[22]
  GI50: 42.1 nM
  TGI: 132 nM
[23]
  GI50: 57.4 nM
  TGI: 134 nM
[24]
  GI50: 72.7 nM
  TGI: 200 nM
[25]
  GI50: 55.5 nM
  TGI: 142 nM
[26]
  GI50: 36.4 nM
  TGI: 345 nM
[27]
  GI50: 97.1 nM
  TGI: 360 nM
[28]
  GI50: 66.8 nM
  TGI: 200 nM
[29]
  GI50: 65.9 nM
  TGI: 155 nM
[30]
  GI50: 66.1 nM
  TGI: 270 nM
[31]
  GI50: 61.6 nM
  TGI: 219 nM
[32]
  GI50: 65.1 nM
  TGI: 418 nM
[33]
  GI50: 17.8 nM
  TGI: 37.5 nM
[34]
  GI50: 45.2 nM
  TGI: 179 nM
[35]
  GI50: 54.6 nM
  TGI: 112 nM
[36]
  GI50: 64.3 nM
  TGI: 272 nM
[37]
  GI50: 43.1 nM
  TGI: 174 nM
[38]
  GI50: 63.8 nM
  TGI: 354 nM
[39]
  GI50: 27.2 nM
  TGI: 99.5 nM
[40]
  GI50: 25 nM
  TGI: 65.5 nM
[41]
  GI50: 21.5 nM
  TGI: 58 nM
[42]
  GI50: 34.9 nM
  TGI: 143 nM
[43]
  GI50: 143 nM
  TGI: 274 nM
[44]
  GI50: 35 nM
  TGI: 117 nM
[45]
  GI50: 29.4 nM
  TGI: 140 nM
[46]
  GI50: 90.9 nM
  TGI: 422 nM
[47]
  GI50: 89 nM
  TGI: 292 nM
[48]
  GI50: 20.9 nM
  TGI: 49.9 nM
[49]
  GI50: 86.8 nM
  TGI: 678 nM
[50]
  GI50: 36 nM
  TGI: 161 nM
[51]
  GI50: 25.9 nM
  TGI: 131 nM
[52]
  GI50: 24 nM
  TGI: 62.5 nM
[53]
  GI50: 217 nM
  TGI: 641 nM

## CN=C(N)N/N=C(\C)c1ccc2oc3ccc(/C(C)=N/NC(N)=NC)cc3c2c1
[1]
  TGI: 5240 nM
[2]
  TGI: > 100000 nM
[3]
  TGI: 4750 nM
[4]
  TGI: > 100000 nM
[5]
  TGI: > 100000 nM
[6]
  TGI: 10700 nM
[7]
  TGI: 74000 nM
[8]
  TGI: 9060 nM
[9]
  TGI: > 24500 nM
[10]
  TGI: 2420 nM
[11]
  TGI: > 68100 nM
[12]
  TGI: > 100000 nM
[13]
  TGI: > 100000 nM
[14]
  TGI: > 100000 nM
[16]
  TGI: > 100000 nM
[17]
  TGI: > 100000 nM
[18]
  TGI: > 50700 nM
[19]
  TGI: > 100000 nM
[20]
  TGI: > 87000 nM
[21]
  TGI: > 100000 nM
[23]
  TGI: > 100000 nM
[24]
  TGI: 4970 nM
[54]
  TGI: 83000 nM
[25]
  TGI: > 100000 nM
[55]
  TGI: 15000 nM
[26]
  TGI: 5330 nM
[27]
  TGI: > 100000 nM
[28]
  TGI: > 48800 nM
[31]
  TGI: > 100000 nM
[34]
  TGI: > 100000 nM
[36]
  TGI: 10700 nM
[56]
  TGI: > 100000 nM
[39]
  TGI: > 23800 nM
[41]
  TGI: > 31300 nM
[42]
  TGI: > 100000 nM
[43]
  TGI: > 100000 nM
[45]
  TGI: > 30600 nM
[48]
  TGI: > 22800 nM
[49]
  TGI: > 100000 nM
[51]
  TGI: 6410 nM
[52]
  TGI: > 100000 nM
[57]
  TGI: 4730 nM
[53]
  TGI: > 100000 nM
